Read-outs that look alike come from different tables or passages of the source. Blank lines part the entries; values can stand above or below the molecule they belong to.
Tests used:
[1] = system: HepG2; parameters: method as in Albrecht 2019; conditions: In vitro Assay; ref Albrecht 2019; cited from earlier work
[2] = cited from earlier work
[3] = system: primary human hepatocytes, NIH3T3 fibroblasts, BSEP, CYP3A4; conditions: cited from earlier work
[4] = system: human hepatocytes; conditions: cited from earlier work; for Structural based (HCI): In vitro Assay, ref Xu 2008
[5] = system: THLE or HepG2 cells, isolated mitochondria, BSEP; conditions: cited from earlier work
[6] = cited from earlier work; remark: listed apart in the source
[7] = system: PHH; conditions: In vitro Assay; ref Albrecht 2019; cited from earlier work
[8] = ref Chen 2011; cited from earlier work
[9] = Plasma free fraction (fu) and unbound Cmax (Cmax,u); assay type: in vitro ADME, human; conditions: unbound plasma Cmax
[10] = system: hLiMTs
[11] = system: HepaRG spheroids
[12] = system: HepG2 cells; conditions: cited from earlier work
[13] = system: HepG2 cells; conditions: cited from earlier work; remark: listed apart in the source
[14] = system: PHH; conditions: cited from earlier work
[15] = system: hLiMTs; conditions: cited from earlier work
[16] = system: PHH spheroids; conditions: cited from earlier work; for hLiMTs ATP <20 x Cmax: In vitro Assay, ref Vorrink 2018
[17] = read-out: Human plasma Cmax; total plasma Cmax.tot, median of 9 literature references; cited from earlier work
[18] = plasma free fraction; cited from earlier work
[19] = system: HepG2 cells, primary human hepatocytes; conditions: In vitro Assay; ref Garside 2014; cited from earlier work
[20] = system: hLiMTs; assay: Combined HCI (HCS) and cellular ATP 3D assay in hLiMTs
[21] = system: HepaRG spheroids; assay: Combined HCI (HCS) and cellular ATP 3D assay in HepaRG spheroids; conditions: HepaRG; for AC50 / minimal effective concentration: Homo sapiens
[22] = system: THLE-Null and THLE-3A4 cells; conditions: In vitro Assay; ref Gustafsson 2014; cited from earlier work
[23] = system: rBsep; conditions: In vitro Assay; ref Dawson 2012; cited from earlier work
[24] = system: HepG2 C3A spheroid, BSEP, Glu/Gal in HepG2 cells, bioactivation; conditions: cited from earlier work
[25] = system: isolated mouse liver mitochondria; conditions: In vitro Assay; ref Porceddu 2012; cited from earlier work
[26] = In vitro Assay, ref Schadt 2015
[27] = In vitro Assay, ref Persson 2013
[28] = In vitro Assay, ref Proctor 2017

SMILES: Clc1cccc(Cl)c1N=C1NCCN1 [clonidine]
Cytotoxicity HepG2 48 hrs [1]: -VE | DILI +VE (5-8), DILI -VE (-4) ([2]; ref Chen 2016): -VE | DILI severity category ([2]; ref Chen 2016): Ambiguous DILI-concern | Cellular toxicity (3T3 cells) [3, 26]: -VE | Combined Assay [3, 26]: -VE | GSH adduct HML [3, 26]: -VE | Hepatocyte cellular toxicity [3, 26]: -VE | MitoTox 3T3 [3, 26]: -VE | TDI CYP3A4 [3, 26]: -VE | hBSEP inhibition [3, 26]: -VE | Structural based (HCI) [4]: -VE | Partition Hybrid HRM Score ([5]; In vitro Assay, ref Aleo 2019): -VE | Ro2 Hybrid HRM Score ([5]; In vitro Assay, ref Aleo 2019): -VE | In vivo DILI ([6]; ref Albrecht 2019): -VE | In vivo DILI ([6]; ref Schadt 2015): -VE | In vivo DILI ([6]; ref Xu 2008): +VE | Cytotoxicity PHH 48 hrs [7]: -VE | DILI Score (FDA) (1-8) [8]: 3

Human plasma Cmax,u [9]: 0.552 µM | hLiMTs <25x Avg Cmax ATP ([20]; hLiMTs, ATP endpoint, cut-off <25x Avg Cmax): -ve | hLiMTs <100x Avg Cmaxu ATP ([20]; hLiMTs, ATP endpoint, cut-off <100x Avg Cmaxu): -ve | hLiMTs <25x Avg Cmax HCS ([20]; hLiMTs, HCS endpoints, cut-off <25x Avg Cmax): +ve | hLiMTs <100x Avg Cmaxu HCS ([20]; hLiMTs, HCS endpoints, cut-off <100x Avg Cmaxu): +ve (<100x Avg Cmaxu) | hLiMTs <25x Avg Cmax All ([20]; hLiMTs, all endpoints (ATP and HCS), cut-off <25x Avg Cmax): +ve | hLiMTs Cmax max All ([20]; hLiMTs, all endpoints, Cmax max used): +ve | hLiMTs Cmax min All ([20]; hLiMTs, all endpoints, Cmax min used): -ve | hLiMTs <10 uM All ([20]; hLiMTs, all endpoints, cut-off <10 uM): -ve | hLiMTs <100x Avg Cmaxu All ([20]; hLiMTs, all endpoints, cut-off <100x Avg Cmaxu): +ve (<100x Avg Cmaxu) | HepaRG <25x Avg Cmax ATP ([21]; ATP endpoint, cut-off <25x Avg Cmax): +ve | HepaRG <100x Avg Cmaxu ATP ([21]; ATP endpoint, cut-off <100x Avg Cmaxu): +ve (<100x Avg Cmaxu) | HepaRG <25x Avg Cmax HCS ([21]; HCS endpoints, cut-off <25x Avg Cmax): +ve | HepaRG <100x Avg Cmaxu HCS ([21]; HCS endpoints, cut-off <100x Avg Cmaxu): +ve (<100x Avg Cmaxu) | HepaRG <25x Avg Cmax All ([21]; all endpoints (ATP and HCS), cut-off <25x Avg Cmax): +ve | HepaRG Cmax max All ([21]; all endpoints, Cmax max used): +ve | HepaRG Cmax min All ([21]; all endpoints, Cmax min used): -ve | HepaRG <10 uM All ([21]; all endpoints, cut-off <10 uM): -ve | HepaRG <100x Avg Cmaxu All ([21]; all endpoints, cut-off <100x Avg Cmaxu): +ve (<100x Avg Cmaxu)
SMILES: O=C1CN(/N=C/c2ccc(-c3ccc([N+](=O)[O-])cc3)o2)C(O)=N1 [dantrolene]
DILI prediction hLiMTs (HCS-MEC) [10]: +VE (MEC < 25 × Cmax.tot cut-off) | DILI prediction HepaRG spheroids (HCS-MEC) [11]: +VE (MEC < 25 × Cmax.tot cut-off) | DILI severity category (Chen et al. [2016]) ([2]; LTKB DILIrank category, ref Chen et al. 2016): Most | DILI severity category (Chen 2016) ([2]; human DILI classification, LTKB DILIrank, ref Chen et al. 2016): Most | DILI severity category ([2]; human DILI severity, ref Chen et al.): Most | DILI +VE (5-8), DILI -VE (-4) ([2]; ref Chen 2016): +VE | DILI severity category ([2]; ref Chen 2016): vMost-DILI-Concern | Structural based (HCI) ([12]; In vitro Assay, ref O'Brien 2006): +VE | DILI in vitro assay prediction, O'Brien (2006) ([12]; Structural based (HCI), HepG2, ref O'Brien et al. 2006): +VE (lowest HCI endpoint IC50 (or in the absence of dose–response < 100 µM) < 30 × total human plasma exposure levels (Cmax.tot)) | Cluser analysis [13, 27]: -VE | Structural based (HCI) [13, 27]: +VE | DILI in vitro assay prediction, Persson (2013) ([13]; Structural based (HCI), HepG2, ref Persson et al. 2013): -VE | Structural based (HCI) [4]: +VE | DILI in vitro assay prediction, Xu (2008) ([4]; Structural based (HCI), human hepatocytes, ref Xu et al. 2008): +VE | PHH/100uM, Proctor (2017) ([14]; 2D PHH, ATP, IC50 threshold 100 µM, ref Proctor et al. 2017): -VE | PHH ATP <100uM [14, 28]: -VE | hLiMTs ATP <100uM [15, 28]: -VE | hLiMTs/100uM, Proctor (2017) ([15]; hLiMTs, ATP, IC50 threshold 100 µM, ref Proctor et al. 2017): -VE | hLiMTs ATP <20 x Cmax [16]: +VE (IC20 < 20 × Cmax.tot cut-off) | DILI in vitro assay prediction, Vorrink (2018) ([16]; PHH spheroids, ATP, 14 days, IC20 < 20 × Cmax.tot, ref Vorrink et al. 2018): +VE (IC20 < 20 × Cmax.tot cut-off) | Cmax [17]: 3.95 µM | fu [18]: 0.140 | Assigned DILI category ([6]; Chen et al. 2016 or literature alignment, ref Chen et al. 2016): 3 | In vivo DILI ([6]; […]): +VE | In vivo DILI ([6]; ref Garside 2014): +VE | In vivo DILI ([6]; ref O'Brien 2006): +VE | In vivo DILI ([6]; ref Persson 2013): +VE | In vivo DILI ([6]; ref Proctor 2017): +VE | In vivo DILI ([6]; ref Vorrink 2018): +VE | In vivo DILI ([6]; ref Williams 2019): +VE | In vivo DILI ([6]; ref Xu 2008): +VE | Cluster 1-6 +VE Assay [19]: -VE | DILI Score (FDA) (1-8) [8]: 8 | DILI prediction hLiMTs, HCI alone ([20]; HCS endpoints only, 25 × Cmax.tot cut-off): detection | AC50 ([20]; Homo sapiens, read-out: HCS endpoint AC50): 51 µM | minimal effective concentration ([20]; Homo sapiens, read-out: HCS endpoint MEC): 10.5 µM | DILI prediction hLiMTs, ATP alone ([20]; cellular ATP only, 25 × Cmax.tot cut-off): unpredicted | AC50 ([21]; read-out: ATP endpoint AC50): 100 µM | minimal effective concentration ([21]; read-out: ATP endpoint MEC): 53.2 µM | AC50 ([21]; read-out: HCS endpoint AC50): 174 µM | minimal effective concentration ([21]; read-out: HCS endpoint MEC): 14.5 µM

SMILES: OCCOCCN1CCN(C(c2ccccc2)c2ccc(Cl)cc2)CC1 (stereo not shown) [hydroxyzine]
Cytotoxicity HepG2 48 hrs [1]: -VE | DILI +VE (5-8), DILI -VE (-4) ([2]; ref Chen 2016): -VE | DILI severity category ([2]; ref Chen 2016): vNo-DILI-Concern | Partition Hybrid HRM Score ([5]; In vitro Assay, ref Aleo 2019): +VE | Ro2 Hybrid HRM Score ([5]; In vitro Assay, ref Aleo 2019): +VE | In vivo DILI ([6]; […]): -VE | In vivo DILI ([6]; ref Albrecht 2019): -VE | In vivo DILI ([6]; ref Aleo 2019): -VE | Cytotoxicity PHH 48 hrs [7]: -VE

SMILES: C[C@H]1COc2c(N3CCN(C)CC3)c(F)cc3c(=O)c(C(=O)O)cn1c23 [levofloxacin]
Cytotoxicity HepG2 48 hrs [1]: +VE | DILI +VE (5-8), DILI -VE (-4) ([2]; in vivo): +VE | DILI severity category ([2]; in vivo): vMost-DILI-Concern | Cellular toxicity (3T3 cells) [3]: -VE | Combined Assay [3]: -VE | GSH adduct HML [3]: -VE | Hepatocyte cellular toxicity [3]: -VE | MitoTox 3T3 [3]: -VE | TDI CYP3A4 [3]: -VE | hBSEP inhibition [3]: -VE | Structural based (HCI) [4]: -VE | Cytotoxicity PHH 48 hrs [7]: +VE | THLE-Null [22]: -VE | Inhibition of rBsep cutoff<1& cmax u>.2 [23]: -VE | Inhibition of rBsep cutoff<3 [23]: -VE

SMILES: CS(=O)(=O)Nc1ccc([N+](=O)[O-])cc1Oc1ccccc1 [nimesulide]
Cytotoxicity HepG2 48 hrs [1]: +VE | DILI +VE (5-8), DILI -VE (-4) ([2]; in vivo): +VE | DILI severity category ([2]; in vivo): vMost-DILI-Concern | Structural based (HCI) [12]: +VE | Ro2 Hybrid HRM Score [5]: +VE | PHH ATP <100uM [14]: +VE (key: +VE: IC50 threshold of 100 µM) | hLiMTs ATP <100uM [15]: +VE (key: +VE: IC50 threshold of 100 µM) | hLiMTs ATP <20 x Cmax [16]: +VE (IC20 < 20 × Cmax.tot cut-off) | Bayesian Machine Learning [24]: +VE | In vivo DILI ([6]; in vivo): +VE | Cytotoxicity PHH 48 hrs [7]: +VE | in vitro data EC2<=1x Cmax [25]: +VE

SMILES: CC(CN1c2ccccc2Sc2ccccc21)N(C)C (stereo not shown) [promethazine]
Cytotoxicity HepG2 48 hrs [1]: -VE | DILI +VE (5-8), DILI -VE (-4) ([2]; ref Chen 2016): +VE | DILI severity category ([2]; ref Chen 2016): vLess-DILI-Concern | Cellular toxicity (3T3 cells) [3, 26]: +VE | Combined Assay [3, 26]: -VE | GSH adduct HML [3, 26]: +VE | Hepatocyte cellular toxicity [3, 26]: -VE | MitoTox 3T3 [3, 26]: -VE | TDI CYP3A4 [3, 26]: -VE | hBSEP inhibition [3, 26]: -VE | Structural based (HCI) [4]: -VE | hLiMTs ATP <20 x Cmax [16]: -VE | In vivo DILI ([6]; ref Albrecht 2019): -VE | In vivo DILI ([6]; ref Schadt 2015): -VE | In vivo DILI ([6]; ref Vorrink 2018): -VE | In vivo DILI ([6]; ref Xu 2008): -VE | Cytotoxicity PHH 48 hrs [7]: -VE

SMILES: CC(C)NCC(O)COc1cccc2ccccc12 (stereo not shown) [propranolol, reference compound]
Cytotoxicity HepG2 48 hrs [1]: -VE | Ro2 Hybrid HRM Score ([5]; In vitro Assay, ref Aleo 2019): -VE | Partition Hybrid HRM Score [5]: +VE | response of PHH spheroids at 5 × Cmax.tot ([16]; ATP, 14 days, not positive at higher concentrations, ref Vorrink et al. 2018): positive | hLiMTs ATP <20 x Cmax [16]: -VE | Cytotoxicity PHH 48 hrs [7]: -VE | Inhibition of rBsep cutoff<1& cmax u>.2 [23]: -VE | Inhibition of rBsep cutoff<3 [23]: -VE

From article PMC7395068, “The evolution of strategies to minimise the risk of human drug-induced liver injury (DILI) in drug discovery and development” (Archives of Toxicology, 2020)
